Measured values as given in ChEMBL document CHEMBL1151287, “Discorhabdin W, the first dimeric discorhabdin” (J Nat Prod, 2005).

The molecules below were run on P388 (assay: Cytotoxicity against mouse P388 cells).
Type: functional, cell-based

Compound	IC50
O=C1C=C[C@@]23C[C@@H](NC4=C2C2=NCCc5c[nH]c(c52)C4=O)SC3=C1	510 nM
O=C1C2=C3C4=[N+](CCc5c[nH]c1c54)[C@@H]1C(=O)C=C4S[C@@H](C[C@@]43[C@H]1O)N2 [DISCORHABDIN L]	1100 nM
O=C1C2=C3C4=[N+](CCc5c[nH]c1c54)[C@H]1C[C@@]34C[C@@H](N2)SC4=CC1=O [DISCORHABDIN D]	1600 nM
O=C1C=C2S[C@H]3C[C@]2(C=C1Br)C1=C(N3)C(=O)c2[nH]cc3c2C1=NCC3 [DISCORHABDIN B]	87 nM
O=C1C=C(SSC2=CC(=O)C(Br)=C[C@]23C=CNC2=C3C3=NCCc4c[nH]c(c43)C2=O)[C@@]2(C=CNC3=C2C2=NCCc4c[nH]c(c42)C3=O)C=C1Br [DISCORHABDIN W]	84 nM
